Data published in US20240101563A1, “NOVEL COMPOUNDS” (AC Immune SA, priority 2022, published 2024).
Where a name gives a salt, the structure may show the parent alone. Read-outs that look alike come from different tables or passages of the source.

Tested on: NLRP3 inflammasome pathway
Assay: NLRP3 inflammasome pathway activation assay, MSU stimulation, IL-1β HTRF
Format: cell-based
Conditions: read-out: IC50 Human monocyte-like cells MSU
Method: The following assays were used to determine the inhibitory activity of test compounds on the NLRP3 inflammasome pathway using common stimuli Nigericin (Invivogen) or monosodium urate crystals (MSU) (Invivogen).
Human monocyte-like cells were cultured in RPMI-1640 Glutamax medium supplemented with 10% heat inactivated FBS (Fetal Bovine Serum) and 50 U/mL penicillin-streptomycin (Life Technologies).
Human monocyte-like cells were seeded at 25000 per well in a 384-well plate and were differentiated overnight into macrophages with 10 ng/mL PMA (Phorbol Myristate Acetate). The following day, medium containing 10 ng/mL LPS (Lipopolysaccharide) was added. After 3 hours of LPS priming, concentrations of test compound in the range from […] were added 30 min prior to NLRP3 inflammasome pathway stimulation with Nigericin 3.75 μM or MSU 200 μg/mL for 3 h.
For IL-1p quantification, supernatants were analyzed using HTRF kit according to the manufacturer's instructions (Cisbio 62HIL1BPEH). Briefly, in a 384-well ProxiPlate™ microplate, 8 μl of sample was mixed, with 5 μl of Anti-IL1β Cryptate antibody (40×) and Anti-IL1β XL antibody (40×). Then, incubated overnight at RT. Reading was done using an EnVision Reader (PerkinElmer).
IC50 (concentration corresponding to 50% inhibition) were determined using GraphPad Prism 9.

[1] = Homo sapiens, 3 h, Table 7, PMA-differentiated, LPS-primed cells, MSU 200 μg/mL for 3 h, IL-1β release

Compound | IC50 [1] | other results
CCn1c(-c2ccc(C(F)(F)F)cc2O)nc2nc(NCCO)ccc21 [Example 16, 2-(1-ethyl-5-((2-hydroxyethyl)amino)-1H-imidazo[4,5-b]pyridin-2-yl)-5-(trifluoromethyl)phenol] | 0.1 to 1 µM | 
CN1CC[C@@H](Oc2ccc3c(n2)nc(-c2ccc(C(F)(F)F)cc2O)n3C)C1 [Example 27, (R)-2-(1-methyl-5-((1-methylpyrrolidin-3-yl)oxy)-1H-imidazo[4,5-b]pyridin-2-yl)-5-(trifluoromethyl)phenol] | < 0.1 µM | 
Cc1cc(C(F)(F)F)cc(O)c1-c1nc2nc(O[C@@H]3CCN(C)C3)ccc2n1C [Example 28, (R)-3-methyl-2-(1-methyl-5-((1-methylpyrrolidin-3-yl)oxy)-1H-imidazo[4,5-b]pyridin-2-yl)-5-(trifluoromethyl)phenol] | < 0.1 µM | 
Cc1cc(C(F)(F)F)cc(O)c1-c1nc2nc(OCCO)ccc2n1C(C)C [Example 33, 2-(5-(2-hydroxyethoxy)-1-isopropyl-1H-imidazo[4,5-b]pyridin-2-yl)-3-methyl-5-(trifluoromethyl)phenol] | 0.1 to 1 µM | 
COc1ccc2c(n1)nc(-c1ccc(C(F)(F)F)cc1O)n2C(C)C [Example 35, 2-(1-isopropyl-5-methoxy-1H-imidazo[4,5-b]pyridin-2-yl)-5-(trifluoromethyl)phenol] | 0.1 to 1 µM | 
Cc1cc(C(F)(F)F)cc(O)c1-c1nc2nc(NC3CCCC3O)ccc2n1C (centres unmarked) [Example 36] |  | IC50 (Table 7, PMA-differentiated, LPS-primed cells, MSU 200 μg/mL for 3 h, IL-1β release): 0.1 to 1 µM
Cc1cc(Cl)cc(O)c1-c1nc2nc(OCC(F)(F)F)ccc2n1C [Example 38, 5-chloro-3-methyl-2-(1-methyl-5-(2,2,2-trifluoroethoxy)-1H-imidazo[45-b]pyridin-2-yl)phenol] | 0.1 to 1 µM | 
Cc1cc(Cl)cc(O)c1-c1nc2nc(OC3CC(F)(F)C3)ccc2n1C [Example 39, 5-chloro-2-(5-(3,3-difluorocyclobutoxy)-1-methyl-1H-imidazo[4,5-b]pyridin-2-yl)-3-methylphenol] |  | IC50 (Homo sapiens, 3 h): 0.1 to 1 µM
CN1CCC[C@@H](Nc2ccc3cn(-c4ccc(C(F)(F)F)cc4O)nc3n2)C1 [Example 40, (R)-2-(6-((1-methylpiperidin-3-yl)amino)-2H-pyrazolo[3,4-b]pyridin-2-yl)-5-(trifluoromethyl)phenol formate] | < 0.1 µM | 
CNc1ccc2cn(-c3ccc(C(F)(F)F)cc3O)nc2n1 [Example 41, 2-[6-(methylamino)pyrazolo[3,4-b]pyridin-2-yl]-5-(trifluoromethyl)phenol] | 0.1 to 1 µM | 
COc1ccc2cn(-c3ccc(C(F)(F)F)cc3O)nc2n1 [Example 42] | 0.1 to 1 µM | 
Oc1cc(C(F)(F)F)ccc1-n1cc2ccc(OC(F)F)nc2n1 [Example 44, 2-[6-(difluoromethoxy)pyrazolo[3,4-b]pyridin-2-yl]-5-(trifluoromethyl)phenol] |  | IC50 (Homo sapiens, 3 h): 0.1 to 1 µM
Cc1cc(C(F)(F)F)cc(O)c1-c1nc2nc(N[C@@H]3CCN(C)C3)c(F)cc2n1C [Example 46, (R)-2-(6-fluoro-1-methyl-5-((1-methylpyrrolidin-3-yl)amino)-1H-imidazo[4,5-b]pyridin-2-yl)-3-methyl-5-(trifluoromethyl)phenol] | < 0.1 µM | 
COc1nc2nc(-c3ccc(C(F)(F)F)cc3O)n(C)c2cc1CO [Example 51, 2-(6-(hydroxymethyl)-5-methoxy-1-methyl-1H-imidazo[4,5-b]pyridin-2-yl)-5-(trifluoromethyl)phenol] | < 0.1 µM | 
COc1nc2nc(-c3c(C)cc(C(F)(F)F)cc3O)n(C)c2cc1CO [Example 52, 2-(6-(hydroxymethyl)-5-methoxy-1-methyl-1H-imidazo[4,5-b]pyridin-2-yl)-3-methyl-5-(trifluoromethyl)phenol] | < 0.1 µM | 
COc1cnc2c(n1)nc(-c1c(C)cc(C(F)(F)F)cc1O)n2C [Example 56, 2-(5-methoxy-1-methyl-1H-imidazo[4,5-b]pyrazin-2-yl)-3-methyl-5-(trifluoromethyl)phenol] | < 0.1 µM | 
COc1cnc2c(n1)nc(-c1c(C)cc(Cl)cc1O)n2C [Example 59, 5-chloro-2-(5-methoxy-1-methyl-imidazo[4,5-b]pyrazin-2-yl)-3-methyl-phenol formate Salt] | < 0.1 µM | 
Cc1cc(C(F)(F)F)cc(O)c1-c1nc2nc(N3CCOCC3)cnc2n1C [Example 61, 3-methyl-2-(1-methyl-5-morpholino-1H-imidazo[4,5-b]pyrazin-2-yl)-5-(trifluoromethyl)phenol] | < 0.1 µM | 

The next lines start with results.

IC50 [1] | Compound | other results
0.1 to 1 µM | CC(C)n1c(-c2ccc(C(F)(F)F)cc2O)nc2nc(N[C@@H]3CCCN(C)C3)ccc21 [Example 13, (R)-2-(1-isopropyl-5-((1-methylpiperidin-3-yl)amino)-1H-imidazo[4,5-b]pyridin-2-yl)-5-(trifluoromethyl)phenol] | 
0.1 to 1 µM | CCn1c(-c2ccc(C(F)(F)F)cc2O)nc2nc(NC)ccc21 [Example 14, 2-(1-ethyl-5-(methylamino)-1H-imidazo[4,5-b]pyridin-2-yl)-5-(trifluoromethyl)phenol] | 
0.1 to 1 µM | CNc1ccc2c(n1)nc(-c1c(C)cc(C(F)(F)F)cc1O)n2C(C)C [Example 15, 2-(1-isopropyl-5-(methylamino)-1H-imidazo[4,5-b]pyridin-2-yl)-3-methyl-5-(trifluoromethyl)phenol] | 
0.1 to 1 µM | CC(C)n1c(-c2ccc(C(F)(F)F)cc2O)nc2nc(NCCO)ccc21 [Example 17, 2-(5-((2-hydroxyethyl)amino)-1-isopropyl-1H-imidazo[4,5-b]pyridin-2-yl)-5-(trifluoromethyl)phenol] | 
0.1 to 1 µM | CCn1c(-c2c(C)cc(Cl)cc2O)nc2nc(OC)ccc21 [Example 30, 5-chloro-2-(1-ethyl-5-methoxy-1H-imidazo[4,5-b]pyridin-2-yl)-3-methylphenol] | 
0.1 to 1 µM | COc1ccc2c(n1)nc(-c1c(C)cc(Cl)cc1O)n2C(C)C [Example 31, 5-chloro-2-(1-isopropyl-5-methoxy-1H-imidazo[4,5-b]pyridin-2-yl)-3-methylphenol] | 
0.1 to 1 µM | COc1ccc2c(n1)nc(-c1c(C)cc(C(F)(F)F)cc1O)n2C(C)C [Example 34, 2-(1-isopropyl-5-methoxy-1H-imidazo[4,5-b]pyridin-2-yl)-3-methyl-5-(trifluoromethyl)phenol] | 
< 0.1 µM | CN1CCC[C@@H](Nc2ccc3cn(-c4ccc(Cl)cc4O)nc3n2)C1 [Example 43, (R)-5-chloro-2-(6-((1-methylpiperidin-3-yl)amino)-2H-pyrazolo[3,4-b]pyridin-2-yl)phenol] | 
0.1 to 1 µM | Oc1cc(C(F)(F)F)ccc1-n1cc2ccc(OC(F)(F)F)nc2n1 [Example 45, 2-[6-(trifluoromethoxy)pyrazolo[3,4-b]pyridin-2-yl]-5-(trifluoromethyl)phenol] | 
< 0.1 µM | Cc1cc(Cl)cc(O)c1-c1nc2nc(N[C@@H]3CCN(C)C3)c(F)cc2n1C [Example 47, (R)-5-chloro-2-(6-fluoro-1-methyl-5-((1-methylpyrrolidin-3-yl)amino)-1H-imidazo[4,5-b]pyridin-2-yl)-3-methylphenol formate Salt] | 
0.1 to 1 µM | OCCNc1ccc2cn(-c3ccc(C(F)(F)F)cc3O)nc2n1 [Example 48, 2-(6-((2-hydroxyethyl)amino)-2H-pyrazolo[3,4-b]pyridin-2-yl)-5-(trifluoromethyl)phenol] | 
0.1 to 1 µM | Cn1c(-c2ccc(Cl)cc2O)nc2nc(C(F)(F)F)ccc21 [Example 49, 5-chloro-2-(1-methyl-5-(trifluoromethyl)-1H-imidazo[4,5-b]pyridin-2-yl)phenol] | 
0.1 to 1 µM | Cn1c(-c2ccc(C(F)(F)F)cc2O)nc2nc(NCC3(O)COC3)ccc21 [Example 54, 3-(((2-(2-hydroxy-4-(trifluoromethyl)phenyl)-1-methyl-1H-imidazo[4,5-b]pyridin-5-yl)amino)methyl)oxetan-3-ol] | 
0.1 to 1 µM | COc1nc2nc(-c3c(C)cc(C(F)(F)F)cc3O)n(C)c2cc1C(C)(C)O [Example 57, 2-[6-(1-hydroxy-1-methyl-ethyl)-5-methoxy-1-methyl-imidazo[4,5-b]pyridin-2-yl]-3-methyl-5-(trifluoromethyl)phenol] | 
< 0.1 µM | Cc1cc(Cl)cc(O)c1-c1nc2nc(O[C@@H]3CCN(C)C3)cnc2n1C [Example 58, (R)-5-chloro-3-methyl-2-(1-methyl-5-((1-methylpyrrolidin-3-yl)oxy)-1H-imidazo[4,5-b]pyrazin-2-yl)phenol formate Salt] | 
< 0.1 µM | Cc1cc(C(F)(F)F)cc(O)c1-c1nc2nc(N(C)[C@@H]3CCN(C)C3)cnc2n1C [Example 60, (R)-3-methyl-2-(1-methyl-5-(methyl(1-methylpyrrolidin-3-Yl)amino)-1H-imidazo[4,5-b]pyrazin-2-yl)-5-(trifluoromethyl)phenol formate Salt] | 
0.1 to 1 µM | Cc1cc(Cl)cc(O)c1-c1nc2nc(NC3CN(C)CC3(F)F)ccc2n1C (centres unmarked) [Example 62, 5-chloro-2-(5-((4,4-difluoro-1-methylpyrrolidin-3-yl)amino)-1-methyl-1H-imidazo[4,5-b]pyridin-2-yl)-3-methylphenol HCl Salt] | 
